Results as given in patent US12011444B2, “N-substituted indole derivatives as PGE2 receptor modulators” (Idorsia Pharmaceuticals Ltd, priority 2015, dated 2024).

Tests used:
PTGER2 (EP2) = PTGER2 (EP2) (Homo sapiens (Human), UniProt P43116); experiment: hEP2 b-arrestin assay (PathHunter HEK 293 PTGER2 b-arrestin cells); type: cell-based
Summary of the method: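 HEK293 cells expressing ProLink-tagged EP2 and EA-fused β-arrestin 2 (enzyme fragment complementation) were seeded 24 h, pre-incubated with compound 15 min at 37 °C, then stimulated with 5 μM PGE2 (final) for 120 min.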

PTRGER4 (EP4) = PTRGER4 (EP4) (Homo sapiens (Human), UniProt P35408); experiment: hEP4 b-arrestin assay (PathHunter HEK 293 PTGER4 b-arrestin cells); type: cell-based
Chain of PTRGER4 (EP4) (P35408 whole entry, looked up, the tested form may be a part): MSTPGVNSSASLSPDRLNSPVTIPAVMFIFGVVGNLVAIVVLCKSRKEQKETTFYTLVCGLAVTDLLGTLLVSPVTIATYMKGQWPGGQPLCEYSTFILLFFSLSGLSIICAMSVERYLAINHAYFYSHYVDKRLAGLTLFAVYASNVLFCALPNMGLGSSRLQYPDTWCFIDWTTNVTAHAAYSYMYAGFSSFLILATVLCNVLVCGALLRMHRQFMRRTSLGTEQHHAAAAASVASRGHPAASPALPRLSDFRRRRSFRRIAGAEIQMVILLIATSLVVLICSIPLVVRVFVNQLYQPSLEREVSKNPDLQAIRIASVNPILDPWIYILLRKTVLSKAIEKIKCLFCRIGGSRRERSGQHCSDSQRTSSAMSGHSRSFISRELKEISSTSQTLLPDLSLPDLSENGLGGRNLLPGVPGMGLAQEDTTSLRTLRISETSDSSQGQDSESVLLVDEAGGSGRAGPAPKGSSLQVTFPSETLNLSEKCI
Summary of the method: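 Stably transfected HEK293 cells carrying EP4–ProLink and β-arrestin 2–EA (β-gal fragment complementation), pre-incubated with compound 15 min at 37 °C, then stimulated with PGE2 (20 nM final) for 120 min at 37 °C. Chemiluminescence read after 1 h detection reagent at room temperature; activity per concentration expressed as percent of DMSO control.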

[1] = hEP2 b-arrestin assay (values without asterisk)
[2] = hEP4 b-arrestin assay (values without asterisk)
[3] = antagonistic activity on hEP2, mean where measured multiple times
[4] = antagonistic activity on hEP4, mean where measured multiple times

Chain of PTGER2 (EP2) (P43116 whole entry, the tested form may be a part): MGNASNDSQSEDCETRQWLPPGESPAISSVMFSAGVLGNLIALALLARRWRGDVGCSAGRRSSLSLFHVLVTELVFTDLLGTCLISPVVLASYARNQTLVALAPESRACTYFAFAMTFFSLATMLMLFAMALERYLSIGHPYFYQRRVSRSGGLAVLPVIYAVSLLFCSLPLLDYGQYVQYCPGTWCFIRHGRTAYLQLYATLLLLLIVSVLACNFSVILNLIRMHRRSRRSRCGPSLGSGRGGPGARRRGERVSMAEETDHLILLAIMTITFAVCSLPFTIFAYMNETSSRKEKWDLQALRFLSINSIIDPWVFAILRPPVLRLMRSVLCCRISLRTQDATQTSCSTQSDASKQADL

Structure (SMILES)	IC50 (PTGER2 (EP2); [1])	IC50 (PTRGER4 (EP4); [2])	IC50 (PTGER2 (EP2); [3])	IC50 (PTRGER4 (EP4); [4])
COc1ccc(F)c2c1cc(C#N)n2CCNc1cc(-c2cccc3[nH]ccc23)ncn1 [Example 969, 7-Fluoro-1-{2-[6-(1H-indol-4-yl)-pyrimidin-4-ylamino]-ethyl)-4-methoxy-1H-indole-2-carbonitrile]	56 nM	25 nM		
COc1ccc(F)c2c1cc(C)n2CCNc1cc(-c2ccc3[nH]cnc3c2)ncn1 [compound 57, [6-(1H-Benzoimidazol-5-yl)-pyrimidin-4-yl]-[2-(7-fluoro-4-methoxy-2-methyl-indol-1-yl)-ethyl]-amine]			16 nM	113 nM
COc1ccc(F)c2c1cc(C#N)n2CCNc1cc(-c2ccc(C(N)=O)s2)ncn1 [Example 900, 5-{6-[2-(2-Cyano-7-fluoro-4-methoxy-indol-1-yl)-ethylamino]-pyrimidin-4-yl)-thiophene-2-carboxylic acid amide]	26 nM	22 nM		
COC(=O)c1ccc2cc(-c3cc(NCCn4c(C#N)cc5c(OC)ccc(F)c54)ncn3)[nH]c2c1 [Example 959, 2-{6-[2-(2-Cyano-7-fluoro-4-methoxy-indol-1-yl)-ethylamino]-pyrimidin-4-yl}-1H-indole-6-carboxylic acid methyl ester]	3 nM	137 nM		
COc1ccc(F)c2c1cc(C#N)n2CCNc1cc(-c2ccc(-c3cnn[nH]3)cc2)ncn1 [Example 923, 7-Fluoro-4-methoxy-1-(2-{6-[4-(3H-[1,2,3]triazol-4-yl)-phenyl]-pyrimidin-4-ylamino}-ethyl)-1H-indole-2-carbonitrile]	20 nM	42 nM		
COc1ccc(F)c2c1cc(C#N)n2CCNc1cc(-c2ccc(-c3nc(C)[nH]c3C)cc2)ncn1 [Example 821, 1-(2-{6-[4-(2,5-Dimethyl-1H-imidazol-4-yl)-phenyl]-pyrimidin-4-ylamino}-ethyl)-7-fluoro-4-methoxy-1H-indole-2-carbonitrile]	4 nM	2 nM		
CCOc1cc(-c2cc(NCCn3c(C#N)cc4c(Cl)cc(F)c(F)c43)ncn2)ccc1NCC(=O)O [Example 916, (4-{6-[2-(4-Chloro-2-cyano-6,7-difluoro-indol-1-yl)-ethylamino]-pyrimidin-4-yl}-2-ethoxy-phenylamino)-acetic acid]	20 nM	18 nM		
COc1ccc(F)c2c1cc(C#N)n2CCNc1cc(-c2ccc3c(=O)[nH]n(C)c3c2)ncn1 [Example 921, 7-Fluoro-4-methoxy-1-{2-[6-(1-methyl-3-oxo-2,3-dihydro-1H-indazol-6-yl)-pyrimidin-4-ylamino]-ethyl}-1H-indole-2-carbonitrile]	6 nM	9 nM		
COc1ccc(F)c2c1cc(C)n2CCNc1cc(-c2cc(C(F)(F)F)c(-c3noc(=O)[nH]3)s2)ncn1 [Example 1062, 3-(5-{6-[2-(7-Fluoro-4-methoxy-2-methyl-indol-1-yl)-ethylamino]-pyrimidin-4-yl}-3-trifluoromethyl-thiophen-2-yl)-[1,2,4]oxadiazol-5(4H)-one]	33 nM	13 nM		
CCOc1cc(-c2cc(NCCn3c(C#N)cc4c(OC)ccc(F)c43)ncn2)ccc1CCC(=O)O [Example 924, 3-(4-{6-[2-(2-Cyano-7-fluoro-4-methoxy-indol-1-yl)-ethylamino]-pyrimidin-4-yl}-2-ethoxy-phenyl)-propionic acid]	224 nM	308 nM		
CCOc1cc(-c2cc(NCCn3c(C)cc4c(OC)ccc(F)c43)ncn2)ccc1NCC(=O)O [Example 811, (2-Ethoxy-4-{6-[2-(7-fluoro-4-methoxy-2-methyl-indol-1-yl)-ethylamino]-pyrimidin-4-yl}-phenylamino)-acetic acid]	3 nM	20 nM		
CCOc1cc(-c2cc(NCCn3c(C#N)cc4c(C)cc(F)c(F)c43)ncn2)ccc1C(=O)O [Example 956, 4-{6-[2-(2-Cyano-6,7-difluoro-4-methyl-indol-1-yl)-ethylamino]-pyrimidin-4-yl}-2-ethoxy-benzoic acid]	21 nM	37 nM		
N#Cc1cc2c(Cl)cccc2n1CCNc1cc(-c2cc(Cl)c(C(=O)O)s2)ncn1 [Example 1020, 3-Chloro-5-{6-[2-(4-chloro-2-cyano-indol-1-yl)-ethylamino]-pyrimidin-4-yl}-thiophene-2-carboxylic acid]	2 nM	29 nM		
COc1cc(-c2cc(NCCn3c(C#N)cc4c(OC)ccc(F)c43)ncn2)ccn1 [Example 898, 7-Fluoro-4-methoxy-1-{2-[6-(2-methoxy-pyridin-4-yl)-pyrimidin-4-ylamino]-ethyl}-1H-indole-2-carbonitrile]	41 nM	123 nM		
COc1cccc2c1cc(C)n2CCNc1cc(-c2ccc3[nH]cnc3c2)ncn1 [compound 8, [6-(1H-Benzoimidazol-5-yl)-pyrimidin-4-yl]-[2-(4-methoxy-2-methyl-indol-1-yl)-ethyl]-amine]			9 nM	333 nM
CCOc1cc(-c2cc(NCCn3c(C)cc4c(OC)ccc(F)c43)ncn2)ccc1C(=O)CO [Example 1040, 1-(2-Ethoxy-4-{6-[2-(7-fluoro-4-methoxy-2-methyl-indol-1-yl)-ethylamino]-pyrimidin-4-yl}-phenyl)-2-hydroxy-ethanone]	91 nM	407 nM		
CCOc1cc(-c2cc(NCCn3c(C#N)cc4c(OC)ccc(F)c43)ncn2)ccc1O [Example 899, 1-{2-[6-(3-Ethoxy-4-hydroxy-phenyl)-pyrimidin-4-ylamino]-ethyl)-7-fluoro-4-methoxy-1H-indole-2-carbonitrile]	5 nM	16 nM		
COc1ccc(F)c2c1cc(C#N)n2CCNc1cc(-c2ccc3[nH]ccc3c2)ncn1 [Example 994, 7-Fluoro-1-{2-[6-(1H-indol-5-yl)-pyrimidin-4-ylamino]-ethyl}-4-methoxy-1H-indole-2-carbonitrile]	7 nM	6 nM		
CCOc1cc(-c2cc(NCCn3c(C)cc4c(OC)ccc(F)c43)ncn2)ccc1NCC(=O)OC [Example 1042, (2-Ethoxy-4-{6-[2-(7-fluoro-4-methoxy-2-methyl-indol-1-yl)-ethylamino]-pyrimidin-4-yl}-phenylamino)-acetic acid methyl ester]	11 nM	57 nM		
COc1ncc(-c2cc(NCCn3c(C)cc4c(OC)ccc(F)c43)ncn2)s1 [compound 3]			100 nM	769 nM

Results, then the compound that gave them:

IC50 (PTGER2 (EP2); [1])	IC50 (PTRGER4 (EP4); [2])	IC50 (PTGER2 (EP2); [3])	IC50 (PTRGER4 (EP4); [4])	Structure (SMILES)
		5 nM	765 nM	CCc1cc(-c2cc(NCCn3c(C)cc4c(F)ccc(F)c43)ncn2)ccc1C(=O)O [compound 121, 4-{6-[2-(4,7-Difluoro-2-methyl-indol-1-yl)-ethylamino]-pyrimidin-4-yl}-2-ethyl-benzoic acid]
		53 nM	299 nM	COc1ccc(F)c2c1cc(C)n2CCNc1cc(-c2cc(C)c(C(=O)O)c(C)c2)ncn1 [compound 289]
		213 nM	485 nM	Cc1cc(F)c(F)c2c1cc(C)n2CCNc1cc(-c2ccc3cc[nH]c3c2)ncn1 [compound 59, [2-(6,7-Difluoro-2,4-dimethyl-indol-1-yl)-ethyl]-[6-(1H-indol-6-yl)-pyrimidin-4-yl]-amine]
		238 nM	713 nM	COc1ccc(Cl)c2c1cc(C)n2CCNc1cc(-c2ccc3[nH]c(C)nc3c2)ncn1 [compound 80]
		49 nM	481 nM	COc1cccc2c1cc(C)n2CCNc1cc(-c2ccc3[nH]c(C)nc3c2)ncn1 [compound 352]
		27 nM	653 nM	Cc1cccc2c1cc(C)n2CCNc1cc(-c2ccc(C(=O)O)c(CCC(C)C)c2)ncn1 [compound 329, 4-{6-[2-(2,4-Dimethyl-indol-1-yl)-ethylamino]-pyrimidin-4-yl}-2-(3-methyl-butyl)-benzoic acid]
		96 nM	299 nM	Cc1cc2c(Cl)ccc(Cl)c2n1CCNc1cc(-c2ccc3[nH]c(C(=O)O)cc3c2)ncn1 [compound 198]
		65 nM	885 nM	COc1ccc(Cl)c2c1cc(C)n2CCNc1cc(-c2cc(C)c(C(=O)O)c(F)c2)ncn1 [compound 276]
		7 nM	97 nM	CCNc1cc(-c2cc(NCCn3c(C)cc4c(C)ccc(F)c43)ncn2)cc(F)c1C(=O)O [compound 392]
		21 nM	732 nM	COc1cc(-c2cc(NCCn3c(C)cc4c(C)cc(F)cc43)ncn2)ccc1C(=O)O [compound 232]
		37 nM	127 nM	CCOc1cc(-c2cc(NCCn3c(C)cc4cc(OC)cc(F)c43)ncn2)sc1C(=O)O [compound 259]
		4 nM	39 nM	COc1ccc(F)c2c1cc(C)n2CCNc1cc(-c2ccc(-c3ccn[nH]3)cc2)ncn1 [compound 193, [2-(7-Fluoro-4-methoxy-2-methyl-indol-1-yl)-ethyl]-{6-[4-(2H-pyrazol-3-yl)-phenyl]-pyrimidin-4-yl}-amine]
		11 nM	635 nM	Cc1cc2c(Cl)cccc2n1CCNc1cc(-c2ccc(C(=O)O)c(CC(C)C)c2)ncn1 [compound 268]
		2 nM	507 nM	CCNc1cc(-c2cc(NCCn3c(C)cc4c(F)ccc(C)c43)ncn2)ccc1C(=O)O [compound 246]
		5 nM	588 nM	Cc1cc2c(F)ccc(F)c2n1CCNc1cc(-c2ccc(C(=O)O)c(CC(C)C)c2)ncn1 [compound 332, 4-{6-[2-(4,7-Difluoro-2-methyl-indol-1-yl)-ethylamino]-pyrimidin-4-yl}-2-isobutyl-benzoic acid]
